{
  "source": "patent US12109214B2",
  "about": "“Formulation and treatment methods” (PRODRUGXTEND PTY LTD, priority 2015, dated 2024)",
  "key": {"[1]": {"system": "Escherichia coli, Enterococcus faecalis and Bacteroides thetaiotamicron", "experiment": "Bacterial conversion to thioguanine nucleotides (6-TGN) in vitro", "format": "in vitro ADME", "details": "log phase cultures of all three strains, 1 mM, 120 minutes", "description": "Bacterial metabolism of 6-TG was investigated in vitro using the representative gut bacteria Escherichia coli, Enterococcus faecalis and Bacteroides thetaiotamicron. […] In contrast, generation of 6-TGN was minimal over this time period when cultures were incubated with 1 mM 6-MP."}, "DSS induced colitis": {"system": "DSS induced colitis", "experiment": "6-MP in DSS induced colitis over one month", "format": "in vivo, mice", "details": "large doses of 6-MP", "from_the_text": "This discovery was particularly unexpected as these mice lack the ability to form TGNs (the active metabolites) through the conventional metabolic route in the liver and leukocytes. However, formation of the active metabolite was discovered outside the generally understood mechanism. The magnitude of the reduction in disease activity was similar to that found in wild-type mice in which colitis had been induced with DSS. […] Conversion of the related thiopurine, 6-MP, to 6-TGTP was considerably less over the same period consistent with rate-limiting IMPDH in the purine salvage pathway of bacteria."}, "[2]": {"system": "Winnie mice (spontaneous colitis)", "experiment": "Spontaneous colitis in Winnie mice, daily gavage up to 14 days", "format": "in vivo", "from_the_text": "(§1) The vehicle control was water.\nBoth the colitis and its improvement with treatment [FIGS. 2A and 2(B)] were more marked in the distal colon (DC) of the Winnie mice."}, "[3]": {"system": "Winnie mice (spontaneous colitis)", "experiment": "Spontaneous colitis in Winnie mice, low dose gavage 28 days", "format": "in vivo", "from_the_text": "as §1"}, "[4]": {"system": "C57B1/6 WT mice (chronic DSS induced colitis)", "experiment": "Chronic DSS-induced colitis in C57Bl/6 WT mice", "format": "in vivo", "description": "as §1\nDextran sodium sulphate (DSS) (36-50 kDa; MP Biochemicals) was administered in the drinking water chronically [0.5% (w/v) for 4 cycles of 5 days on, followed by either 7 or 9 days off]."}, "RaW and Winnie mice": {"system": "RaW and Winnie mice", "experiment": "Colitis in Winnie and RaW (Rag-/- x Winnie) mice", "format": "in vivo", "from_the_text": "as §1\nT and B lymphocytes are not required for the occurrence of spontaneous colitis in Winnie mice. Winnie x Rag^−/− (RaW) mice are Winnie mice that lack T and B lymphocytes. RaW mice spontaneously develop a colitis phenotype with more proximal disease than Winnie [Eri, R D et al; Mucosal. Immunol. 4, 354-364 (2011)]."}, "[5]": {"system": "Winnie mice (spontaneous colitis)", "description": "All the animal experiments were approved by the University of Queensland Animal Ethics Committee. C57B1/6 wild-type (WT) mice were purchased from the Animal Resource Authority, Western Australia and the Hprt^−/−, Winnie and RaW were bred in-house in a pathogen free animal facility. […] 6-MP (MW 170, 6-MP monohydrate, ex Sigma-Aldrich) was dissolved in water. The vehicle control was water.\nFor DSS induced colitis in Hprt^−/− mice the composite disease activity index (DAI) score was used and this comprised diarrhoea, rectal bleeding and body weight percent loss subscores (0<1% loss; 1=1-5% loss; 2=5-15% loss; 3>15% loss)."}, "[6]": {"system": "HeLa cells expressing LC3-GFP infected with SL1344", "experiment": "Antibacterial autophagy assay", "format": "cell-based", "details": "6-TG 50 μM"}, "[7]": {"system": "Salmonella typhimurium (SL1344) in HeLa cells", "experiment": "Bacterial replication assay"}, "[8]": {"system": "Hprt−/− mice (DSS induced colitis)", "experiment": "Chronic DSS induced colitis in Hprt-/- mice"}, "[9]": {"system": "primary fibroblasts isolated from WT and Hprt−/− mice", "experiment": "Autophagy (LC3-II/β-actin) in primary fibroblasts", "format": "cell-based", "description": "HeLa, HCT116, HT29, HepG2 and RAW cells were obtained from ATCC and grown in DMEM supplemented with GlutaMAX (Life Technologies), 10% fetal calf serum and 20 μg/ml penicillin/streptomycin. HeLa cells stably expressing LC3-GFP have been described previously (Kabeya Y et al., The EMBO Journal, 2000, 19 (2), 5720-5728; Birmingham C L et al, J. Biol. Chem., 2006, 281 (16), […]). Primary fibroblasts isolated from WT and Hprt^−/− mice were generated from ear punch samples after dissociation with trypsin and cultured in DMEM supplemented with Glutamax and 20% fetal calf serum with antibiotics and passaged up to four times to ensure that they were axenic.\nFollowing treatment cells were treated with TNN (Tris-HCl, NaCl, NP40) lysis buffer. […] Following transfer to PVDF membranes (Invitrogen), detection was performed using rabbit anti-LC3 primary (Sigma), mouse anti-Actin (Sigma) and appropriate fluorescent secondary antibodies (LI-COR Biosciences) and imaged on a LICOR fluorescent imaging system."}, "[10]": {"details": "WT mice 0.5% DSS, 6-TG 0.5 mg/kg gavage 28 days"}, "[11]": {"details": "PC and DC of RaW mice and Winnie controls, 6-TG 2.5 mg/kg"}, "[12]": {"details": "RaW and Winnie mice, 6-TG 2.5 mg/kg up to 14 days"}},
  "data": [
    {"compound": "Sc1ncnc2nc[nH]c12", "note": "[Formulation 6-MP, 3,7-dihydropurine-6-thione]", "values": [
      {"measurement": "6-TGN (6-TGMP, 6-TGDP and 6-TGTP) generation in bacterial pellets", "setting": "[1]", "result": "minimal"},
      {"measurement": "colitis", "setting": "DSS induced colitis", "result": "no reduction in colitis"}
    ]},
    {"compound": "Nc1nc2nc[nH]c2c(=S)[nH]1", "note": "[Formulation 6-TG, 2-amino-6,7-dihydro-3H-purine-6-thione]", "values": [
      {"measurement": "spontaneous colitis (histological colitis)", "setting": "[2]; 6-TG 1-2.5 mg/kg daily gavage up to 14 days", "result": "ameliorated the spontaneous colitis in a dose-dependent manner"},
      {"measurement": "pharmacodynamic effect (time to improved colonic histology)", "setting": "[2]; oral and intra-rectal TG, 1 or 2.5 mg/kg/day", "result": "less than two weeks"},
      {"measurement": "blinded histological colitis scores PC and DC", "setting": "[3]; 6-TG 0.5 mg/kg/d", "result": "improved blinded histological colitis scores in both PC and DC"},
      {"measurement": "combined diarrhoea (diarrhoea and rectal bleeding) score", "setting": "[3]; 6-TG 0.5 mg/kg/d or 6-MP 2.5 mg/kg/d", "result": "improved with 6-TG"},
      {"measurement": "peripheral blood leukocytes", "setting": "[3]; 6-TG 0.5 mg/kg/d or 6-MP 2.5 mg/kg/d, P=0.09", "result": "tended to reduce peripheral blood leukocytes"},
      {"measurement": "DSS colitis, total colitis scores, immune and epithelial damage subscores", "setting": "[4]; [10]", "result": "improved with 6-TG"},
      {"measurement": "colon weight", "setting": "[4]; [10]", "result": "significantly improved"},
      {"measurement": "combined diarrhoea score", "setting": "[4]; [10]", "result": "significantly improved"},
      {"measurement": "peripheral white blood cells", "setting": "[4]; WT mice DSS-treated and untreated, 6-TG 0.5 mg/kg gavage 28 days", "result": "decreased peripheral white blood cells"},
      {"measurement": "body weight gain", "setting": "[4]; juvenile C57B1/6 WT mice, irrespective of DSS, 6-TG 0.5 mg/kg", "result": "reduction of expected body weight gain"},
      {"measurement": "Muc2 expression", "setting": "RaW and Winnie mice; [11]", "result": "increased Muc2 expression"},
      {"measurement": "inflammation (Ifn-γ, Il-1b)", "setting": "RaW and Winnie mice; [11]", "result": "decreased inflammation"},
      {"measurement": "blinded histological PC and DC colitis scores", "setting": "RaW and Winnie mice; [12]", "result": "improved blinded histological PC and DC colitis scores"},
      {"measurement": "goblet cell morphology", "setting": "RaW and Winnie mice; [12]", "result": "restored goblet cell morphology"},
      {"measurement": "colitis in mid-colon or proximal colon", "setting": "[5]; intra-rectal 1 mg/kg daily 14 days", "result": "no improvement"},
      {"measurement": "blinded histological scoring of the distal colon", "setting": "[5]; intra-rectal 1 mg/kg daily 14 days, P<0.01", "result": "striking improvement"},
      {"measurement": "combined diarrhea score", "setting": "[5]; intra-rectal 1 mg/kg daily, from day 11, vs 6-MP and vehicle", "result": "statistically significant improvement"},
      {"measurement": "6-TGN (6-TGMP, 6-TGDP and 6-TGTP) generation in bacterial pellets", "setting": "[1]", "result": "found in the bacterial pellets"},
      {"measurement": "LC3 co-localization with intracellular bacteria", "setting": "[6]", "result": "significantly increased LC3 co-localization"},
      {"measurement": "intracellular replication of the bacteria (luminescence)", "setting": "[7]; HeLa cells, 50 or 100 μM 6-TG, 12 h post infection", "result": "significantly decreased intracellular replication"},
      {"measurement": "bacterial growth (OD 600 absorbance)", "setting": "[7]; over the 12 h period", "result": "did not alter bacterial growth"},
      {"measurement": "disease activity", "setting": "[8]; Hprt−/− mice, 0.5% DSS, 6-TG 0.5 mg/kg oral gavage day 28 to 52", "result": "rapid and appreciable reduction in disease activity"},
      {"measurement": "immunosuppression", "setting": "[8]; Hprt−/− mice, 6-TG 0.5 mg/kg oral gavage", "result": "not associated with immunosuppression"},
      {"measurement": "MLN cell counts", "setting": "[8]; Hprt−/− mice, DSS, 6-TG 0.5 mg/kg", "result": "not depressed by 6-TG"},
      {"measurement": "CD3e+CD4+, CD11b+ and CD11c+MHCII+ subset numbers in the MLN", "setting": "[8]; untreated or DSS exposed Hprt−/− mice, 6-TG 0.5 mg/kg", "result": "not decreased"}
    ]},
    {"compound": "CCC(=O)N1CCN(c2ccc(-n3c(=O)ccc4cnc5ccc(-c6cnc7ccccc7c6)cc5c43)cc2C(F)(F)F)CC1", "note": "[Torin1]", "values": [
      {"measurement": "autophagy induction", "setting": "[9]", "result": "autophagy could be induced"}
    ]}
  ]
}
